In patent US9562035B2, “Benzamide derivative useful as FASN inhibitors for the treatment of cancer” (Janssen Pharmaceutica NV, priority 2013, dated 2017):

Columns and labels:
[1] = molecular target: T1, hFASN enzyme (full length) (Homo sapiens, UniProt P49327); assay: Fatty Acid Synthase (FASN) Inhibition Scintillation Proximity Assay; assay type: biochemical; conditions: for IC50: mean where tested more than once, ~ = standard error of pIC50 larger than 0.5; for inhibition at 10 µM: read-out: FASN % Effect @1E−05M
T1 construct: 10 μL hFASN enzyme (full length, 300 ng, purified in house); made in house
In short: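 Purified full-length human FASN (300 ng) incubated 60 min at room temperature with NADPH, [3H]-acetyl-CoA and malonyl-CoA in 100 mM KH2PO4 pH 7.5, 1 mM DTT; compound at 30 μM to 0.01 μM. [3H]-palmitate captured by SPA imaging beads; IC50 from 4-parameter fit, reported as pIC50.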

[2] = molecular target: T2, FASN Keto-reductase Domain (Homo sapiens, UniProt P49327); assay: Fatty Acid Synthase Keto-Reductase Domain (FASN KR) Inhibition; assay type: biochemical; conditions: mean where tested more than once; read-out: FASN K-R Domain pIC50 (converted)
T2 construct: 10 μL hFASN enzyme (full length, 300 ng, purified in house) and 360 μM NADPH; made in house
In short: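 Full-length human FASN (300 ng) in 100 mM KH2PO4 pH 7.5 with 360 μM NADPH and 180 mM ethyl acetoacetate (stock); A340 decrease read over 20 min at room temperature.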

A2780 ovarian cells [3] = assay: A2780 Ovarian Cell Proliferation Assay in Lipid Reduced Medium, with Palmitate (control); assay type: cell-based; conditions: Homo sapiens, A2780; lipid reduced medium, 25 μM palmitate, 96 h, MTT; read-out: Proliferation A2780 with Palmitate pIC50 (converted)
Procedure: (§1) The biological assays described below correspond to comparative assays for ovarian cell proliferation. […] Compounds active in the absence of palmitate would not be expected to be active in the control.
(§2) 2500 cells were seeded in a 96-well clear well plate in 200 μL RPMI1640 with 10% Fetal Calf Serum (Hyclone), and incubated at 37° C., 5% CO2. Blanks were wells without cells. The next day the culture medium was aspirated and replaced by 160 μL culture medium with 10% Lipid-Reduced Serum (LRS, Hyclone). 20 μL test compound (at concentrations of 30 μM, 10 μM, 3 μM, 1 μM, 0.30 μM, 0.10 μM, 0.03 μM and 0.01 μM)/DMSO dilution followed by 20 μL palmitate-BSA solution were added to a final concentrations of 0.2% DMSO, 25 μM palmitate (Sigma, P0500, 10 mM stock solution in ethanol) 0.2% fatty-acid-free BSA, 0.25% ethanol. After 96 h incubation, an MTT assay was performed. The absorbance was measured at 544 nm on a SPECTRAMAX.
A best fit curve was fitted by a minimum sum of squares method, plotting Controlmin versus test compound concentration. From the plot, an IC50 (concentration at which 50% inhibition is achieved) was calculated. pIC50 values, presented in the Table below, were calculated as −log(IC50).
(§3) Representative compounds of the present invention were tested according to the procedure as described in Biological Example 3 above, with results as listed in Table BIO-3, below.

A2780 ovarian cells [4] = assay: A2780 Ovarian Cell Proliferation Assay in Lipid Reduced Medium, without Palmitate; assay type: cell-based; conditions: Homo sapiens, A2780; lipid reduced medium, without palmitate, 96 h, MTT; read-out: Proliferation A2780 w/o Palmitate pIC50 (converted)
Procedure: as §1
as §2, with “ethanol-BSA” for “palmitate-BSA”, “DMSO,” for “DMSO, 25 μM palmitate (Sigma, P0500, 10 mM stock solution in ethanol)”, “incubation” for “incubation,”
Raw data generated by the instrument were normalized to % Controlmin values, which were calculated as: % Controlmin=100*(x−mLC)/(mHC−mLC)
where mLC and mHC were the means of the low control wells and high control wells on the plate, after manual exclusion of outliers. A plot of Controlmin versus test compound concentration was fitted to a 4-parameter logistic curve using a non-linear least squares regression method. From the plot, an IC50 (concentration at which 50% inhibition is achieved) was calculated. pIC50 values were calculated as −log(IC50), when IC50 is expressed in molar units.
as §3

T2 sequence (P49327 whole entry, the tested form may be a part): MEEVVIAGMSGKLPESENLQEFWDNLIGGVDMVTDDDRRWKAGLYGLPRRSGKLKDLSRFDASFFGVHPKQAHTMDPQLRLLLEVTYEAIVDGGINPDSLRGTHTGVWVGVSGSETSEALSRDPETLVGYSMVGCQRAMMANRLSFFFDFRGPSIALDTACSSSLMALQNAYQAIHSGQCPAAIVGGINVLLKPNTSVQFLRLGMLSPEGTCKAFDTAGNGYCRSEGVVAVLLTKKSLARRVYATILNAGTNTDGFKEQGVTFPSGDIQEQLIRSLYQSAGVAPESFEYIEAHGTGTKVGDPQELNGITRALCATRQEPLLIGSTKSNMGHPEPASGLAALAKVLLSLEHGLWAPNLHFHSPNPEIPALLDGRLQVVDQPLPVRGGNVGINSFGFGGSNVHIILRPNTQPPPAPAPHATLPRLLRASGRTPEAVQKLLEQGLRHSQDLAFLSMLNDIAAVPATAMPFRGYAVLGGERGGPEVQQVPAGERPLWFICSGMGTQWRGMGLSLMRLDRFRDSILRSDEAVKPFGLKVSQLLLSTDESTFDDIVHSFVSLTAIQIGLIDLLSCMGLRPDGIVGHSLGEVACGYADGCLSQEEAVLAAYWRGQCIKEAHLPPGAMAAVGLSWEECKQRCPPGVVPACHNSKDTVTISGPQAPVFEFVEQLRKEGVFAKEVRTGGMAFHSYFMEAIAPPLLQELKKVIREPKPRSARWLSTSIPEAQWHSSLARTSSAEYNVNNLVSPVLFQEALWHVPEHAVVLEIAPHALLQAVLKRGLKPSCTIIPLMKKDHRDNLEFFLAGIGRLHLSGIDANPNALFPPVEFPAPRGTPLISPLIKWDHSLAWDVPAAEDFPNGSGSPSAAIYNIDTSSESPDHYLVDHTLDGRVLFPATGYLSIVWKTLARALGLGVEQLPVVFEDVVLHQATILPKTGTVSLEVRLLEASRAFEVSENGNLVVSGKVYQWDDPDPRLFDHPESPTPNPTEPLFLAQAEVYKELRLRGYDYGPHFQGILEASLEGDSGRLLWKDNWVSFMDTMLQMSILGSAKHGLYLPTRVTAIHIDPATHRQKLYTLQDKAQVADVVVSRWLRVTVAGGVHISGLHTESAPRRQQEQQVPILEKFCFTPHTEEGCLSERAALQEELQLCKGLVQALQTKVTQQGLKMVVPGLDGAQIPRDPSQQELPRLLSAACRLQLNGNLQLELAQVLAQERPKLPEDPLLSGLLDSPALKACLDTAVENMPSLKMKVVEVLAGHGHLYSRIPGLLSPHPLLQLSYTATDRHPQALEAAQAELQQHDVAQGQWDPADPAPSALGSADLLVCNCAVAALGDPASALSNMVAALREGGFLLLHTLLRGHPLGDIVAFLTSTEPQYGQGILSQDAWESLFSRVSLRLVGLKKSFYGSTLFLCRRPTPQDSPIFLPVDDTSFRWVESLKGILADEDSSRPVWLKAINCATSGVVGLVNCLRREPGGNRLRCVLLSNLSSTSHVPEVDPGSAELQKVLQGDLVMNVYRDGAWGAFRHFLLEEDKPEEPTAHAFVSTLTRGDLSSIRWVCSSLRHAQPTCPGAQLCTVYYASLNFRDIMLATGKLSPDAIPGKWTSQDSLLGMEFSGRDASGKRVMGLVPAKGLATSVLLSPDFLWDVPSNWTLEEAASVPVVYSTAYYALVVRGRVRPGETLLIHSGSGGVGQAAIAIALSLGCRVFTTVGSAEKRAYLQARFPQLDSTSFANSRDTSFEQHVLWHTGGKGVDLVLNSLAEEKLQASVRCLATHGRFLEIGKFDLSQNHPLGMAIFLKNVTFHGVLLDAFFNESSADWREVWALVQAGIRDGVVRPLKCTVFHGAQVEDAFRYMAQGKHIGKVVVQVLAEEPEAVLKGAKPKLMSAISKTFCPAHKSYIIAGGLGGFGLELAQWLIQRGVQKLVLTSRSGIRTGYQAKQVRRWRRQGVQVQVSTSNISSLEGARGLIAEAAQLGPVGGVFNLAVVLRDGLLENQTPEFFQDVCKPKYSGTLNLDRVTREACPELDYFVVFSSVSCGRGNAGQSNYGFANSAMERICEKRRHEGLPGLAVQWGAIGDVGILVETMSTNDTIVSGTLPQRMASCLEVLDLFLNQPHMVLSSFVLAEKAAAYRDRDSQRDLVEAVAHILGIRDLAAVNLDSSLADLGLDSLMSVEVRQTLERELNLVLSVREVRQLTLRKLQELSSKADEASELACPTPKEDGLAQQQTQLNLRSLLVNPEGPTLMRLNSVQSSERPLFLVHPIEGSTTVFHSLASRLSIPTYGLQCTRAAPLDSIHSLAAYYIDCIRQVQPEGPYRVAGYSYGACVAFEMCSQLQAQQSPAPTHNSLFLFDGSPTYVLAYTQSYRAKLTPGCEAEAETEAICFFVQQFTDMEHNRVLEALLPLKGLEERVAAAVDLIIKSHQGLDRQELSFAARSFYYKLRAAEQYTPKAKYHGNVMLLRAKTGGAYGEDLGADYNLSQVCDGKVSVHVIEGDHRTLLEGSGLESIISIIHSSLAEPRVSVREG
T1 sequence (P49327 whole entry): as the sequence (P49327 whole entry, the tested form may be a part) above

Row | IC50 [1] | inhibition at 10 µM [1] | IC50 [2] | IC50 (A2780 ovarian cells [3]) | IC50 (A2780 ovarian cells [4]) | Structure (SMILES)
1 | 21.4 nM | 106% | 34.7 nM | > 10000 nM | 102 nM | Cc1ccc(C(=O)N2CCC(c3ccc(-c4cn[nH]c4)cc3)CC2)cc1NC(=O)c1ccc(NC(C)C)nc1 [Compound 42, N-(5-(4-(4-(1H-pyrazol-4-yl)phenyl)piperidine-1-carbonyl)-2-methylphenyl)-6-(isopropylamino)nicotinamide]
2 | 61.7 nM | 102% | 89.1 nM | > 10000 nM | 155 nM | Cc1ccc(C(=O)N2CCC(c3ccc(-c4ccnn4C)cc3)CC2)cc1NC(=O)c1ccc(NC(C)C)nc1 [Compound 44, 6-(Isopropylamino)-N-(2-methyl-5-(4-(4-(1-methyl-1H-pyrazol-5-yl)phenyl)piperidine-1-carbonyl)phenyl)nicotinamide]
3 | 269 nM | 92% | 457 nM | > 10000 nM | 1410 nM | Cc1ccc(C(=O)N2CCC(c3ccc4[nH]c(=O)sc4c3)CC2)cc1NC(=O)c1ccc(Cl)nc1 [Compound 48, 6-chloro-N-(2-methyl-5-(4-(2-oxo-2,3-dihydrobenzo[d]thiazol-6-yl)piperidine-1-carbonyl)phenyl)nicotinamide]
4 | 120 nM | 97% | 229 nM | > 10000 nM | 813 nM | Cc1ccc(C(=O)N2CCC(c3ccc4[nH]c(=O)sc4c3)CC2)cc1NC(=O)c1ccc(NC(C)C)nc1 [Compound 49, 6-(isopropylamino)-N-(2-methyl-5-(4-(2-oxo-2,3-dihydrobenzo[d]thiazol-6-yl)piperidine-1-carbonyl)phenyl)nicotinamide]
5 | 309 nM | 93% | 603 nM | > 10000 nM | 1230 nM | Cc1ccc(C(=O)N2CCC(c3ccc4c(c3)CC(=O)N4)CC2)cc1NC(=O)c1ccc(Cl)nc1 [Compound 50, 6-chloro-N-(2-methyl-5-(4-(2-oxoindolin-5-yl)piperidine-1-carbonyl)phenyl)nicotinamide]
6 | 14.8 nM | 110% | 25.1 nM | 1700 nM | ~33.9 nM | Cc1ccc(C(=O)N2CCC(c3ccc(-c4cnoc4)cc3)CC2)cc1NC(=O)c1ccc(NC(C)C)nc1 [Compound 51, 6-(isopropylamino)-N-(5-(4-(4-(isoxazol-4-yl)phenyl)piperidine-1-carbonyl)-2-methylphenyl)nicotinamide]
7 | 437 nM | 86% | 513 nM | ~85.1 nM | ~77.6 nM | Cc1ccc(C(=O)N2CC(c3ccc(-c4ccnn4C)cc3)C2)cc1NC(=O)c1ccc2ccccc2n1 [Compound 55, N-(2-methyl-5-(3-(4-(1-methyl-1H-pyrazol-5-yl)phenyl)azetidine-1-carbonyl)phenyl)quinoline-2-carboxamide]
8 | 309 nM | 95% | 457 nM | 912 nM | 437 nM | Cc1ccc(C(=O)N2CC(c3ccc(-c4ccnn4C)cc3)C2)cc1NC(=O)c1cncc(Br)c1 [Compound 56, 5-bromo-N-(2-methyl-5-(3-(4-(1-methyl-1H-pyrazol-5-yl)phenyl)azetidine-1-carbonyl)phenyl)nicotinamide]
9 | 25.1 nM | 106% | 25.7 nM | 6310 nM | 45.7 nM | Cc1ccc(C(=O)N2CC(c3ccc(-c4ccnn4C)cc3)C2)cc1NC(=O)c1ccc(N2CCCCC2)nc1 [Compound 57, N-(2-methyl-5-(3-(4-(1-methyl-1H-pyrazol-5-yl)phenyl)azetidine-1-carbonyl)phenyl)-6-(piperidin-1-yl)nicotinamide]
10 | 11.2 nM | 111% | 28.2 nM | 3720 nM | 18.2 nM | Cc1ccc(C(=O)N2CC(c3ccc(-c4ccnn4C)cc3)C2)cc1NC(=O)c1ccc(N2CCOCC2)nc1 [Compound 58, N-(2-methyl-5-(3-(4-(1-methyl-1H-pyrazol-5-yl)phenyl)azetidine-1-carbonyl)phenyl)-6-morpholinonicotinamide]
11 | 56.2 nM | 103% | 115 nM | 7240 nM | 93.3 nM | Cc1ccc(C(=O)N2CC(c3ccc(-c4ccnn4C)cc3)C2)cc1NC(=O)c1ccc(N2CCN(C)CC2)nc1 [Compound 59, N-(2-methyl-5-(3-(4-(1-methyl-1H-pyrazol-5-yl)phenyl)azetidine-1-carbonyl)phenyl)-6-(4-methylpiperazin-1-yl)nicotinamide]
12 | 19.5 nM | 103% | 28.8 nM | 2750 nM | 51.3 nM | Cc1ccc(C(=O)N2CC(c3ccc(-c4ccnn4C)cc3)C2)cc1NC(=O)c1ccc(N(C)C(C)C)nc1 [Compound 60, 6-(isopropyl(methyl)amino)-N-(2-methyl-5-(3-(4-(1-methyl-1H-pyrazol-5-yl)phenyl)azetidine-1-carbonyl)phenyl)nicotinamide]
13 | 15.5 nM | 103% | 69.2 nM | 11000 nM | ~91.2 nM | Cc1ccc(C(=O)N2CC(c3ccc(-c4ccnn4C)cc3)C2)cc1NC(=O)c1ccc(N(C)C2CCN(C)CC2)nc1 [Compound 61, 6-(methyl(1-methylpiperidin-4-yl)amino)-N-(2-methyl-5-(3-(4-(1-methyl-1H-pyrazol-5-yl)phenyl)azetidine-1-carbonyl)phenyl)nicotinamide]
14 | 16.2 nM | 103% | 51.3 nM | 4170 nM | 74.1 nM | Cc1ccc(C(=O)N2CC(c3ccc(-c4ccnn4C)cc3)C2)cc1NC(=O)c1ccc(NC2CCC2)nc1 [Compound 62, 6-(cyclobutylamino)-N-(2-methyl-5-(3-(4-(1-methyl-1H-pyrazol-5-yl)phenyl)azetidine-1-carbonyl)phenyl)nicotinamide]
15 | 27.5 nM | 100% | 24.5 nM | 3020 nM | 53.7 nM | CC(C)Nc1ccc(C(=O)Nc2cc(C(=O)N3CC(c4ccc(-c5ccnc6ccccc56)cc4)C3)ccc2Cl)cn1 [Compound 63, N-(2-chloro-5-(3-(4-(quinolin-4-yl)phenyl)azetidine-1-carbonyl)phenyl)-6-(isopropylamino)nicotinamide]
16 | 20.9 nM | 99% | 28.8 nM | > 10000 nM | 56.2 nM | CC(C)Nc1ccc(C(=O)Nc2cc(C(=O)N3CC(c4ccc(-c5cnn(C)c5)cc4)C3)ccc2Cl)cn1 [Compound 65, N-(2-chloro-5-(3-(4-(1-methyl-1H-pyrazol-4-yl)phenyl)azetidine-1-carbonyl)phenyl)-6-(isopropylamino)nicotinamide]
17 | 151 nM | 92% | ~603 nM | 240 nM | 234 nM | CC(C)Nc1ccc(C(=O)Nc2cc(C(=O)N3CCC(c4ccc(-c5ccc6cnccc6c5)cc4)CC3)ccc2Cl)cn1 [Compound 67, N-(2-chloro-5-(4-(4-(isoquinolin-6-yl)phenyl)piperidine-1-carbonyl)phenyl)-6-(isopropylamino)nicotinamide]
